From patent publication US12403184B2, “Compositions and methods for treating neurodegenerative disroders” (priority 2018, dated 2025)
Where no end group is shown, it is not given here.

Key:
[1] = tested on: Drp1 with its mitochondrial adaptors Mff, Fis1 and MIEF1; experiment: Immunoprecipitation of Drp1 with mitochondrial adaptors after crosslinking; format: cell-based, mouse; settings: HdhQ111 cells, 1 μM/day for 4 days
Procedure: For Drp1-Mff or Drp-MiD51 (MIEF1) interaction, the cells were cross-linked by […] for 10 min at r.t., then […] in PBS was added to quench the redundant DSP activity. For Drp1-Fis1 interaction, the cells were cross-linked by 1% FA for 20 min at r.t., then added […] in PBS to quench the redundant activity. The cells were washed with PBS, sonicated, and lysed with 1% Triton X-100 total lysis buffer.

[2] = tested on: neurons derived from HD patients; experiment: mitoROS (mitoSOX probe) in neurons derived from iPS cells; format: cell-based, human
Procedure: iPS cells from a normal subject and a HD patient (carrying 41 CAG repeats) were differentiated into neurons using the protocol from our previous studies. Briefly, the iPS cells were plated onto 6-well plates precoated with 2.5% Matrigel and allowed to reach 90% confluence in feeder-free medium. For the first 10 days, the cells were treated with SB431542 (10 μM; Tocris Bioscience) and Noggin (100 ng/ml) in Neural Media (NM) containing Neurobasal and DMEM (1:1), B-27 supplement minus vitamin A (50×, Invitrogen), N2 supplement (100×, Invitrogen), GlutaMax (Invitrogen, 100×), FGF2 ([…]) and EGF ([…]), and 100 units/ml penicillin and 100 μg/ml streptomycin). For the next 10 days, the cells were treated with human recombinant Sonic hedgehog (SHH, 200 ng/ml), DKK1 (100 ng/ml) and BDNF (20 ng/ml), and 10 μM Y27632 (Sigma) in neuronal differentiation medium containing Neurobasal and DMEM (1:3), B27, N2, GlutaMax, and PS. Cells were then switched to treatment with BDNF (20 ng/ml), ascorbic acid (200 μM, Sigma-Aldrich), cAMP (0.5 mM, Sigma-Aldrich), and Y27632 (10 μM) in neuronal differentiation medium. All growth factors were purchased from PeproTech (Rocky Hill, NJ, USA). […]
To examine mitochondrial superoxide production, the cells were stained with MitoSOX (Invitrogen, 5 μM for 10 min) at 37° C. […] At least 150 cells/group were counted and quantitated.

[3] = tested on: mitochondrial fusion and fission-related proteins; experiment: Total protein levels of mitochondrial dynamics proteins by western blot; format: cell-based
Procedure: Protein concentration was measured by protein assay dye reagents (Bio-rad). The protein was resuspended in Laemmli buffer, loaded on SDS-PAGE, and transferred onto nitrocellulose membranes. Membranes were probed with the indicated antibodies, followed by visualization with ECL. Representative blots have been cropped for presentation.

YGRKKRRQRRRGGEDKRKT-NH2 [DA1, YGRKKRRQRRR-GG-EDKRKT-NH2]
interactions of Drp1 with its mitochondrial adaptors Mff, Fis1 and MIEF1 [1]: did not influence | mitoROS [2]: decreased | other mitochondrial fusion and fission-related proteins (total protein levels) [3]: did not affect
